Three compounds from article PMC10541190 (The Journal of Clinical Investigation, 2023) can be followed below.

pEC50: −log10 of the molar value. Where “and” joins values, the source holds several entries; their conditions need not be identical. Equal entries are not always repeated. Where two headings read alike, the source gives them in different places. Some results are limits rather than exact numbers.

The test system of series [1] is SARS-CoV-2 (USA-WA1/2020). Kind of series: microbe, parasite or virus in culture. Conditions: for pEC50: Severe acute respiratory syndrome coronavirus 2, Vero, 24 h, read-out: SARS-CoV-2 EC50. The class given is cell-based.
For series [2], the system named is VEEV (TC-83). The class given is cell-based.
The subject of series [3] is DENV2. The class given is cell-based.
The subject of series [4] is Vero cells.
In series [5] the test system is Huh7 cells. Conditions: human.
Series [6] in a line: in vitro. Conditions: African green monkey.
The nature of series [7]: in vitro. Particulars: human, U-87 MG cell viability (%).
A short description of series [8]: in vitro. Conditions: human, Huh7 cell viability (%).
Series [9] has as its system U-87 MG cells. Particulars: human.

Broadly, the pEC50 is the negative decadic logarithm of the EC50, by convention in mol/L. A word on the viability: it is a read-out of living cells in per cent, often relative to untreated cells. In the case of `CC(=O)O[C@@H]1C[C@H]2C(C)(C)C(=O)C=C[C@]2(C)[C@H]2CC[C@@]3(C)[C@H](c4ccoc4)OC(=O)[C@H]4O[C@]43[C@@]21C` [Gedunin], the “SARS-CoV-2 infection (%)” value in series [1] (0.625 μM) was 97.75% and 70.79% and 84.27%; in series [1] (1.25 μM), 57.30% and 67.42% and 50.56%; in series [1] (5 μM), 0.67% and 1.04% and 1.31%; in [1] (20 μM), 0.00337%. Also, the pEC50 in series [1] is 5.85. The “replication of TC-83” value in series [2] is recorded as “dose-dependently inhibited replication”. For the same compound, the “replication of DENV2” value in [3] is “dose-dependently inhibited replication”. The “Cell viability (%)” value was 106.58% and 104.74% in series [4] (0.625 μM); 98.66% in series [4] (1.25 μM); 83.37% and 75.82% in [4] (5 μM); 88.12% and 85.24% in series [4] (20 μM). In addition, the “Huh7 cell viability (%)” value in series [5] (0.37 µM) came to 96.29%. This compound also showed a CC50 in series [6] of over 20000 nM. Also, in series [6] (Cell viability (%), 0.625 μM), the viability at 0.625 µM amounted to 107%. The viability at 1.25 µM in [6] (Cell viability (%), 1.25 μM) worked out at 105%. Further, the viability at 5 µM in [6] (Cell viability (%)) came to 82.9%. For the same compound, in [6] (Cell viability (%)), the viability at 20 µM was found to be 86.5%. For the same compound, the figures for the viability at 0.37 µM in [7] and in series [8] were 81.9% and 97.4%, respectively. The viability at 3.33 µM in series [7] is 79.5%. The viability at 10 µM in [7] is 75.7%; in series [8], 85%. For the same compound, the viability at […] in series [7] was 79.1% and 86.8%. In addition, the viability at 0.123 µM in series [8] was 97.1%. Further, in series [8], the viability at 1.111 µM turned out to be 96.9%. For the same compound, the viability at 3.333 µM in series [8] is 94.3%.

For the compound `CS(=O)(=O)CCNCc1ccc(-c2ccc3ncnc(Nc4ccc(OCc5cccc(F)c5)c(Cl)c4)c3c2)o1` [Lapati-nib], the “SARS-CoV-2 infection (%)” value in series [1] (0.25 μM) was 46.09% and 52.84% and 47.65%; in series [1] (0.74 μM) it was 18.11% and 21.05% and 22.00% and 22.88% and 28.58%; in [1] (2.22 μM), 20.01% and 16.81% and 28.24% and 14.29% and 20.00%. The “U-87 MG cell viability (%)” value in series [9] (0.37 µM) worked out at 129.28%. Moreover, the viability at 20 µM in [6] (Cell viability (%)) was 67%.

Take `CCN(CC)CCNC(=O)c1c(C)[nH]c(/C=C2\C(=O)Nc3ccc(F)cc32)c1C` [Sunitinib]: the “SARS-CoV-2 infection (%)” value in series [1] (0.5 μM) was 94.03% and 125.37% and 116.42%. Also, in series [1] (1 μM), the “SARS-CoV-2 infection (%)” value is 116.42% and 85.07% and 94.03%. For the same compound, the “SARS-CoV-2 infection (%)” value in [1] (5 μM) is 16.57% and 14.33% and 15.67%. The pEC50 in series [1] is 5.62. In [9] (5 µM), the “U-87 MG cell viability (%)” value is recorded as 106.81%. Further, the “Huh7 cell viability (%)” value in series [5] (1.25 µM) is on record as 90.21%. In addition, in [5] (2.5 µM), the “Huh7 cell viability (%)” value came out at 75.37%. Moreover, the CC50 in series [6] is 12200 nM. The viability at 2.5 µM in series [6] (Cell viability (%), 2.5 μM) was found to be 68.8%. In series [6] (Cell viability (%)), the viability at 5 µM came to 66.1%. For the same compound, in [7], the viability at 0.25 µM is 118%, the viability at 0.74 µM amounted to 110%, the viability at 2.5 µM turned out to be 106% and the viability at 20 µM was 44.6%. Moreover, in series [8], the viability at 0.16 µM was 102%, the viability at 0.63 µM amounted to 99.8%, the viability at 1.25 µM was 89.5% and the viability at 10 µM was 59%.
